Reference: PMC9352624, “Going deeper into the toxicokinetics of synthetic cannabinoids: in vitro contribution of human carboxylesterases” (Archives of Toxicology, 2022)
“And” between values parts separate entries of the source, which are not always exact repeats. Equal entries are not always repeated.

Assays:
hCES2 = target: T1, hCES2 (Homo sapiens, UniProt O00748); assay: Initial activity screening with recombinant hCES2; conditions: 100 µM substrate, 30 min, 37 °C, 0.2 µg/µL protein, LC–ITMS; for Relative amount of hydrolysis metabolite formed, hCES2: mean n = 2
T1 sequence (O00748 27-559): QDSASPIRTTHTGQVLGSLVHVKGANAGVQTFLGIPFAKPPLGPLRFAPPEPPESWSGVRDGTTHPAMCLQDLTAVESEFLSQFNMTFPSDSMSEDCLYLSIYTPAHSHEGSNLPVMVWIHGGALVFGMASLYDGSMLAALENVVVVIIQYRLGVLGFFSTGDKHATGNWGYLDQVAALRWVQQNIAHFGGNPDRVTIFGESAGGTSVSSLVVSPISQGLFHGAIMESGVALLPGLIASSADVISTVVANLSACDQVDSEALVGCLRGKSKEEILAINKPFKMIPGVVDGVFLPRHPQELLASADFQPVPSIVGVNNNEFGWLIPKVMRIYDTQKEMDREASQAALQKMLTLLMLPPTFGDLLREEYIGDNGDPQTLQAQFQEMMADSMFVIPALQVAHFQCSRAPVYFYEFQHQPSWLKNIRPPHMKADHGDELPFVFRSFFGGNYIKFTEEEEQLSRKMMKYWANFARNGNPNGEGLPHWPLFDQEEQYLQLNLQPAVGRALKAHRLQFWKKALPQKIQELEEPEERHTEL

hCES1b [1] = target: T2, hCES1b (Homo sapiens, UniProt P23141); assay: Initial activity screening with recombinant hCES1b; conditions: 100 µM substrate, 30 min, 37 °C, 0.2 µg/µL protein, LC–ITMS; for Relative amount of hydrolysis metabolite formed, hCES1b: mean n = 2
T2 sequence (P23141 18-567): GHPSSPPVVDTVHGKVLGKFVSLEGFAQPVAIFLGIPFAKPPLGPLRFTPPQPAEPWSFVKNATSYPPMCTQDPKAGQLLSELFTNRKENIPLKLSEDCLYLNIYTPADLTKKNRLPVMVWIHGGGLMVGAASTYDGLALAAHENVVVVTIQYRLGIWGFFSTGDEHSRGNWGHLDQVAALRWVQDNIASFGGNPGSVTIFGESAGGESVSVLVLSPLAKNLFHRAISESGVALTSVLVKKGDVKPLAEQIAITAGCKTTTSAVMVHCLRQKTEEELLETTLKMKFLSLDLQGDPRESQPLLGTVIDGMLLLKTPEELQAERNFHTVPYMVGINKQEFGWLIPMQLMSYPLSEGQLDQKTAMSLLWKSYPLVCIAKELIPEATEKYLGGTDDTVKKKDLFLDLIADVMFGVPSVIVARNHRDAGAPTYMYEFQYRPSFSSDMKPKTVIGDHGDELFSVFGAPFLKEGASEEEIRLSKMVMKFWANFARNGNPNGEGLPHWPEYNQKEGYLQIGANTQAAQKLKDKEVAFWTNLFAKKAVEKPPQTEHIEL

hCES1c [2] = target: T3, hCES1c (Homo sapiens, UniProt P23141); assay: Initial activity screening with recombinant hCES1c; conditions: 100 µM substrate, 30 min, 37 °C, 0.2 µg/µL protein, LC–ITMS; for Relative amount of hydrolysis metabolite formed, hCES1c: mean n = 2
T3 sequence (P23141 18-566 isoform P23141-3 limits assumed): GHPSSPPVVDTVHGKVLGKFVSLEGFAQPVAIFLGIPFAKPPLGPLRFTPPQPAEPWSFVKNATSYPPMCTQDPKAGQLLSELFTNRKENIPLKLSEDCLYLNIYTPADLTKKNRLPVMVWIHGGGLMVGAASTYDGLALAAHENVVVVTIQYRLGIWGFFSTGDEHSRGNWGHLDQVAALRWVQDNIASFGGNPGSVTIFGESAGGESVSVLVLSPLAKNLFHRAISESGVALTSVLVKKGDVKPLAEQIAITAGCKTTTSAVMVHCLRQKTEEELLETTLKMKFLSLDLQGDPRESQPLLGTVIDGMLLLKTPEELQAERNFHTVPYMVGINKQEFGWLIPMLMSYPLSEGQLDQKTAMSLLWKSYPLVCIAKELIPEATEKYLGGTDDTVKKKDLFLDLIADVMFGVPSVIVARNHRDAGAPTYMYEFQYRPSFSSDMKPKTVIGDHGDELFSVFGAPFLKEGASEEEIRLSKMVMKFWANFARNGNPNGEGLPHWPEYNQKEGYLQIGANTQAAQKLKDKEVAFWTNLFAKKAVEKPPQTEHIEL

[3] = Initial activity screening with pooled human liver microsomes; conditions: 100 µM substrate, 30 min, 37 °C, 2 µg/µL protein, LC–ITMS, mean n = 2
[4] = Initial activity screening with pooled human liver S9 fraction; conditions: 100 µM substrate, 30 min, 37 °C, 2 µg/µL protein, LC–ITMS, mean n = 2
hCES1c [5] = target: T3, hCES1c; assay: Enzyme kinetic studies of ester hydrolysis with hCES1c; conditions: for Clint (relative in vitro intrinsic clearance), hCES1c: Clint = Vmax/Km; for Vmax (relative), ester hydrolysis by hCES1c: ± S.D., peak area ratio metabolite/internal standard
hCES1b [6] = target: T2, hCES1b; assay: Enzyme kinetic studies of ester hydrolysis with hCES1b; conditions: for Clint (relative in vitro intrinsic clearance), hCES1b: Clint = Vmax/Km; for Vmax (relative), ester hydrolysis by hCES1b: peak area ratio metabolite/internal standard

Row | Molecule | Hydrolysis of carboxamide linker, hCES2 (hCES2) | Hydrolysis of carboxamide/ester in head group, hCES2 (hCES2) | Hydrolysis of carboxamide linker, hCES1b (hCES1b [1]) | Hydrolysis of carboxamide/ester in head group, hCES1b (hCES1b [1]) | Hydrolysis of carboxamide linker, hCES1c (hCES1c [2]) | Hydrolysis of carboxamide/ester in head group, hCES1c (hCES1c [2]) | Relative amount of hydrolysis metabolite formed, hCES1b (hCES1b [1]) | Relative amount of hydrolysis metabolite formed, hCES1c (hCES1c [2]) | Relative amount of hydrolysis metabolite formed, pHLM [3] | Relative amount of hydrolysis metabolite formed, pHLS9 [4] | Relative amount of hydrolysis metabolite formed, hCES2 (hCES2) [%] | Clint (relative in vitro intrinsic clearance), hCES1c (hCES1c [5]) [AU/min/mg/µM] | Vmax (relative), ester hydrolysis by hCES1c (hCES1c [5]) | Clint (relative in vitro intrinsic clearance), hCES1b (hCES1b [6]) [AU/min/mg/µM] | Vmax (relative), ester hydrolysis by hCES1b (hCES1b [6]; ± S.D.) | Km (hCES1b [6]; read-out: Km, ester hydrolysis by hCES1b, ± S.D., Michaelis–Menten fit, conditions of Table 1) [µM]
1 | CC(C)[C@H](NC(=O)c1cc(-c2ccc(F)cc2)nn1CCCCCF)C(N)=O [3,5-AB-5F-FUPPYCA, N-[(1S)-1-(aminocarbonyl)-2-methylpropyl]-1-(5-fluoropentyl)-3-(4-fluorophenyl)-1H-pyrazole-5-carboxamide] | − | − | − | − | − | − |  |  |  |  |  |  |  |  |  | 
2 | O=C(NC12CC3CC(CC(C3)C1)C2)c1nn(CC2CCCCC2)c2ccccc12 [A-CHMINACA, 1-cyclohexylmethyl-N-tricyclo[3.3.1.13,7]dec-1-yl-1H-indazole-3-carboxamide] | − |  | − |  | − |  |  |  |  |  |  |  |  |  |  | 
3 | CC(C)[C@H](NC(=O)c1cn(CCCCCF)c2ncccc12)C(N)=O [AB-5F-P7AICA, (S)-N-(1-amino-3-methyl-1-oxobutan-2-yl)-1-(5-fluoropentyl)-1H-pyrrolo[2,3-b]pyridine-3-carboxamide] | − | − | − | − | − | − |  |  |  |  |  |  |  |  |  | 
4 | CC(C)(C)C(NC(=O)c1nn(CC2CCCCC2)c2ccccc12)C(=O)O (stereo not shown) [DMBA-CHMINACA, 2-[1-(cyclohexylmethyl)-1H-indazole-3-carboxamido]-3,3-dimethylbutanoic acid] | − |  | − |  | − |  |  |  |  |  |  |  |  |  |  | 
5 | CC(C)C(NC(=O)c1nn(CC2CCCCC2)c2ccccc12)C(=O)O (stereo not shown) [MBA-CHMINACA, 2-[1-(cyclohexylmethyl)-1H-indazole-3-carboxamido]-3-methylbutanoic acid] | − |  | − |  | − |  |  |  |  |  |  |  |  |  |  | 
6 | COC(=O)[C@@H](NC(=O)c1nn(CCCCF)c2ccccc12)C(C)(C)C [MDMB-4F-BINACA, methyl (2S)-2-[1-(4-fluorobutyl)-1H-indazole-3-carbonyl]amino-3,3-dimethylbutanoate] | − |  | − | + | − | + | below 1% | below 1% | 4.3% | around 1% |  |  |  |  |  | 
7 | C=CCCCn1nc(C(=O)N[C@H](C(=O)OC)C(C)(C)C)c2ccccc21 [MDMB-4en-PINACA, methyl (2S)-3,3-dimethyl-2-[(1-pent-4-enylindazole-3-carbonyl)amino]butanoate] | − |  | − | + | − | + | below 1% | below 1% | around 1% | around 1% |  |  |  |  |  | 
8 | COC(=O)[C@@H](NC(=O)c1cn(CCCCCF)c2ccccc12)C(C)(C)C [MDMB-5F-PICA, methyl (2S)-2-{[1-(5-fluoropentyl)-1H-indole-3-carbonyl]amino}-3,3-dimethylbutanoate] | − |  | − | − | − | − |  |  |  |  |  |  |  |  |  | 
9 | COC(=O)[C@@H](NC(=O)c1cn(Cc2ccc(F)cc2)c2ccccc12)C(C)(C)C [MDMB-FUBICA, methyl (2S)-2-({1-[(4-fluorophenyl)methyl]-1H-indole-3-carbonyl}amino)-3,3-dimethylbutanoate] | − |  | − | − | − | + |  | below 1% | around 1% | around 1% |  |  |  |  |  | 
10 | C=CCCCn1cc(C(=O)N[C@H](C(=O)OC)C(C)C)c2ccccc21 [MMB-4en-PICA, methyl (1-(pent-4-en-1-yl)-1H-indole-3-carbonyl)-L-valinate] | − | + | − | + | − | + | 1.5% | 5.7% |  | 11% | 0.2 | 0.04 | 7.57 AU/min/mg and 7.57 ± 0.42 AU/min/mg |  |  | 
11 | COC(=O)C(Cc1ccccc1)NC(=O)c1cn(CCCCCF)c2ccccc12 [MPhP-5F-PICA, methyl (1-(5-fluorpentyl)-1H-indole-3-carbonyl)-L-phenylalaninate] | − | + | − | + | − | + | 19% | 20% |  |  | 2.1 | 3.2 | 73.6 AU/min/mg and 73.6 ± 3.8 AU/min/mg | 2.0 | 182 AU/min/mg and 182 ± 13 AU/min/mg | 
12 | N-[(2S)-1-amino-3,3-dimethyl-1-oxobutan-2-yl]-1-(cyclohexylmethyl)-1H-indole-3-carboxamide [MMB-CHMICA] | − |  | − | + | − | + | 14% | 2.3% | 25% |  |  |  |  | 0.53 | 20.8 AU/min/mg and 20.8 ± 2.2 AU/min/mg | 39.3 ± 12
